The structures appear in SMILES notation.

For four compounds, pest or weed control and melting point results are on record in US20240308968A1, “FUNGICIDAL SUBSTITUTED HETEROCYCLES” (FMC Corporation, priority 2021, published 2024).

One series deals with Zymoseptoria tritici. Kind of series: Test A: preventive spray on wheat seedlings, wheat leaf blotch disease rating. Format: in vivo. The note with it: Zymoseptoria tritici, 456 h, 50 ppm, 100 = 100% disease control, 0 = no control. The method, boiled down: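 Disease scored after 17 days in a 20 °C growth chamber, following 48 h at 24 °C in saturated air after spore inoculation with Z. tritici. Inoculation came one day after wheat seedlings were sprayed to run-off with test suspension (acetone/water 50/50, 50–250 ppm PEG400).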

In series [1] the test system is Puccinia recondita f. sp. Tritici. Description: Test B: preventive spray on wheat seedlings, wheat leaf rust disease rating. Format: in vivo. The note with it: Puccinia recondita, 192 h, 50 ppm, 100 = 100% disease control, 0 = no control. The method, boiled down: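 Preventive test: one day after spraying wheat seedlings to run-off with ppm suspensions (acetone/water 1:1, 50-250 ppm PEG400), leaf rust spores were applied. Incubation was 24 h at saturation then 7 days at 20° C.; disease scored 0-100% control relative to untreated.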

Series [2] deals with Blumeria graminis f. sp. Tritici. Description: Test C: preventive spray on wheat seedlings, wheat powdery mildew disease rating. Format: in vivo. The note with it: Blumeria graminis, 192 h, 50 ppm, 100 = 100% disease control, 0 = no control. In outline: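 Disease control scored visually after 8 days at 20° C, on a 0–100 scale versus untreated controls. Seedlings had received a preventive run-off spray one day before dusting with powdery mildew spores; compounds were suspended in acetone/water (50/50) containing 50–250 ppm PEG400.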

The next series deals with Phakopsora pachyrhizi. Description: Test D: preventive spray on soybean seedlings, Asian soybean rust disease rating. The note with it: Phakopsora pachyrhizi, 216 h, 50 ppm, 100 = 100% disease control, 0 = no control. In kind it is in vivo. In outline:
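Seedlings of soybean were challenged with rust spores one day after a run-off spray of test suspension (acetone/water 50/50, 50–250 ppm PEG400); after 24 h saturated humidity and 8 days growth, both at 22° C, disease was scored visually.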

For the next series, the system named is Botrytis cinerea. Kind of series: Test E: preventive spray on tomato seedlings, tomato Botrytis disease rating. In kind it is in vivo. The note with it: Botrytis cinerea, 120 h, 50 ppm, 100 = 100% disease control, 0 = no control. In outline: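 Preventive test: one day after spraying seedlings to run-off with test suspension (ppm in acetone/water, 50–250 ppm PEG400), B. cinerea spores applied. Incubation 48 h at 20 °C saturated humidity plus 3 days at 24 °C preceded visual rating as percent disease control versus controls.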

For a further series, the system named is Alternaria solani. Description: Test F: preventive spray on tomato seedlings, tomato early blight disease rating. Format: in vivo. The note with it: Alternaria solani, 120 h, 50 ppm, 100 = 100% disease control, 0 = no control. The method, boiled down: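 Preventive test: a day after run-off spraying with acetone/water–PEG400 suspensions (ppm), seedlings received an A. solani spore inoculum. Incubation was 48 h at 27 °C in saturated air followed by 3 days in a 20 °C chamber. Visual scores express percent disease control versus untreated plants (0–100).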

`COc1cc(OC)cc(-n2nc(C)c(=O)c(C)c2-c2ccc(F)cc2Cl)c1` [Compound 97, 6-(2-chloro-4-fluorophenyl)-3,5-dimethyl-1-(3,5-dimethoxyphenyl)-4(1H)-pyridazinone] yielded a melting point of 148 to 151 °C. In the series on Zymoseptoria tritici, this compound had a pest or weed control at 50 ppm of 100%. Further, in series [1], the pest or weed control at 50 ppm turned out to be 100%. Besides, the pest or weed control at 50 ppm in series [2] was 99%. This compound also registered a pest or weed control at 50 ppm in the series with Phakopsora pachyrhizi of 100%. Further, in the series with Botrytis cinerea, the pest or weed control at 50 ppm was determined as 96%. The compound further came in with a pest or weed control at 50 ppm in the series with Alternaria solani of 100%.
For the compound `COc1ccc(Cl)c(-n2nc(C)c(=O)c(Cl)c2-c2ccc(F)cc2)c1` [Compound 105, 5-chloro-1-(2-chloro-5-methoxyphenyl)-6-(4-fluorophenyl)-3-methyl-4(1H)-pyridazinone], the melting point fell in the range of 207 to 210 °C. Also, in the series with Zymoseptoria tritici, the pest or weed control at 50 ppm was 100%. Further, the pest or weed control at 50 ppm in series [1] stood at 100%. In addition, in series [2], the pest or weed control at 50 ppm turned out to be 95%. The same compound returned a pest or weed control at 50 ppm in the series on Phakopsora pachyrhizi of 96%. Moreover, in the series with Botrytis cinerea, the pest or weed control at 50 ppm was 98%. The compound further gave a pest or weed control at 50 ppm with Alternaria solani of 100%.
For the compound `COc1cc(OC)c(Cl)c(-c2cc(C#N)c(=O)n(C)c2-c2ccc(F)cc2Cl)c1` [Compound 156, 5-(2-chloro-3,5-dimethoxyphenyl)-6-(2-chloro-4-fluorophenyl)-1,2-dihydro-1-methyl-2-oxo-3-pyridinecarbonitrile], the melting point fell in the range of 209 to 211 °C. The compound further gave a pest or weed control at 50 ppm in the series on Zymoseptoria tritici of 100%. This compound also displayed a pest or weed control at 50 ppm in series [1] of 100%. In series [2], this compound came in with a pest or weed control at 50 ppm of 98%. For the same compound, the pest or weed control at 50 ppm in the series on Phakopsora pachyrhizi turned out to be 99%. In the series on Botrytis cinerea, this compound showed a pest or weed control at 50 ppm of 98%. The pest or weed control at 50 ppm in the series on Alternaria solani was found to be 91%.
On to `CCn1c(-c2ccc(F)cc2Cl)c(-c2cc(OC)cc(OC)c2Cl)cc(C#N)c1=O` [Compound 157, 5-(2-chloro-3,5-dimethoxyphenyl)-6-(2-chloro-4-fluorophenyl)-1,2-dihydro-1-ethyl-2-oxo-3-pyridinecarbonitrile], for which the melting point was in the range of 100 to 103 °C. This compound also yielded a pest or weed control at 50 ppm with Zymoseptoria tritici of 100%. Also, the pest or weed control at 50 ppm in series [1] was found to be 100%. Further, the pest or weed control at 50 ppm in series [2] was found to be 96%. Besides, the pest or weed control at 50 ppm in the series on Phakopsora pachyrhizi stood at 97%. In the series with Botrytis cinerea, this compound gave a pest or weed control at 50 ppm of 99%. This compound also had a pest or weed control at 50 ppm with Alternaria solani of 98%.
